Test results from the OligoGym collection.
Several values for one entry are separate records, joined by “and”; a condition that tells them apart may be missing. Equal entries are not always repeated. HELM strings list units from the 5' end as sugar, base in round brackets, then linkage (d deoxyribose, r ribose, m 2'-O-methyl, p phosphodiester). Strings are as the collection lists them, not checked against the first reports. ss, as = sense and antisense strand; [fl2r] = 2'-fluoro

Conditions: siRNA
Also: test system not given here.

First: RNA1{r(A)p.r(A)p.r(C)p.r(U)p.r(C)p.m(U)p.r(A)p.r(C)p.r(U)p.r(G)p.r(U)p.r(G)p.r(G)p.r(A)p.r(G)p.r(U)p.r(C)p.r(G)p.r(G)p.r(T)p.r(T)}|RNA2{r(C)p.r(C)p.r(G)p.r(A)p.r(C)p.r(U)p.r(C)p.r(C)p.r(A)p.r(C)p.r(A)p.r(G)p.m(U)p.r(A)p.r(G)p.r(A)p.r(G)p.r(U)p.r(U)p.r(T)p.r(T)}$$$RNA1{StrandType:ss}|RNA2{StrandType:as}$
Second: RNA1{r(A)p.r(A)p.r(C)p.r(U)p.r(C)p.r(U)p.r(A)p.r(C)p.[fl2r](U)p.r(G)p.r(U)p.r(G)p.r(G)p.r(A)p.r(G)p.r(U)p.r(C)p.r(G)p.r(G)p.r(T)p.r(T)}|RNA2{r(C)p.r(C)p.r(G)p.r(A)p.r(C)p.r(U)p.r(C)p.[fl2r](C)p.r(A)p.r(C)p.r(A)p.r(G)p.[fl2r](U)p.r(A)p.r(G)p.r(A)p.r(G)p.r(U)p.r(U)p.r(T)p.r(T)}$$$RNA1{StrandType:ss}|RNA2{StrandType:as}$
The target mRNA knockdown of the first is lower: 69% for the first, 72% for the second.

First: RNA1{r(A)p.r(A)p.r(C)p.r(U)p.r(U)p.r(C)p.m(U)p.r(G)p.r(G)p.r(G)p.r(A)p.r(G)p.r(C)p.r(C)p.r(U)p.r(C)p.m(C)p.r(A)p.r(A)p.r(T)p.r(T)}|RNA2{r(U)p.m(U)p.r(G)p.r(G)p.r(A)p.r(G)p.r(G)p.r(C)p.r(U)p.r(C)p.r(C)p.m(C)p.r(A)p.r(G)p.r(A)p.r(A)p.r(G)p.r(U)p.r(U)p.r(T)p.r(T)}$$$RNA1{StrandType:ss}|RNA2{StrandType:as}$
Second: RNA1{r(A)p.r(A)p.r(C)p.r(U)p.r(U)p.r(C)p.r(U)p.r(G)p.r(G)p.r(G)p.r(A)p.r(G)p.r(C)p.r(C)p.r(U)p.r(C)p.m(C)p.r(A)p.r(A)p.r(T)p.r(T)}|RNA2{r(U)p.r(U)p.r(G)p.r(G)p.r(A)p.r(G)p.r(G)p.r(C)p.r(U)p.r(C)p.r(C)p.m(C)p.r(A)p.r(G)p.r(A)p.r(A)p.r(G)p.r(U)p.r(U)p.r(T)p.r(T)}$$$RNA1{StrandType:ss}|RNA2{StrandType:as}$
The target mRNA knockdown of the first is lower: 69% for the first, 73% for the second.

Going from “RNA1{r(A)p.r(A)p.r(G)p.[fl2r](U)p.r(A)p.r(G)p.r(U)p.r(C)p.r(C)p.r(C)p.[fl2r](C)p.r(C)p.r(U)p.[fl2r](U)p.r(G)p.r(A)p.r(A)p.r(G)p.r(A)p.r(T)p.r(T)}|RNA2{r(U)p.r(C)p.r(U)p.r(U)p.[fl2r](C)p.r(A)p.r(A)p.r(G)p.r(G)p.r(G)p.r(G)p.r(G)p.r(A)p.r(C)p.[fl2r](U)p.r(A)p.r(C)p.r(U)p.r(U)p.r(T)p.r(T)}$$$RNA1{StrandType:ss}|RNA2{StrandType:as}$” to “RNA1{r(A)p.r(A)p.r(G)p.m(G)p.m(A)p.r(G)p.r(A)p.r(U)p.m(C)p.m(A)p.m(A)p.r(C)p.r(A)p.r(U)p.m(U)p.m(U)p.r(U)p.r(C)p.r(A)p.r(T)p.r(T)}|RNA2{m(U)p.m(G)p.m(A)p.r(A)p.r(A)p.m(A)p.m(U)p.m(G)p.r(U)p.r(U)p.r(G)p.m(A)p.m(U)p.m(C)p.r(U)p.r(C)p.m(C)p.m(U)p.m(U)p.r(T)p.r(T)}$$$RNA1{StrandType:ss}|RNA2{StrandType:as}$”, the target mRNA knockdown falls from 64% to 38%.

Going from “RNA1{r(A)p.r(A)p.r(G)p.r(G)p.m(C)p.r(A)p.m(U)p.m(G)p.r(C)p.r(U)p.r(U)p.r(C)p.r(G)p.r(G)p.r(A)p.r(A)p.r(A)p.r(C)p.r(U)p.r(T)p.r(T)}|RNA2{r(A)p.r(G)p.r(U)p.r(U)p.r(U)p.r(C)p.r(C)p.r(G)p.r(A)p.r(A)p.r(G)p.m(C)p.r(A)p.m(U)p.r(G)p.r(C)p.r(C)p.r(U)p.r(U)p.r(T)p.r(T)}$$$RNA1{StrandType:ss}|RNA2{StrandType:as}$” to “RNA1{r(A)p.r(A)p.r(G)p.r(G)p.m(C)p.r(A)p.r(U)p.r(G)p.r(C)p.r(U)p.r(U)p.r(C)p.r(G)p.r(G)p.r(A)p.r(A)p.r(A)p.r(C)p.r(U)p.r(T)p.r(T)}|RNA2{r(A)p.r(G)p.r(U)p.r(U)p.r(U)p.r(C)p.r(C)p.r(G)p.r(A)p.r(A)p.r(G)p.m(C)p.r(A)p.r(U)p.r(G)p.r(C)p.r(C)p.r(U)p.r(U)p.r(T)p.r(T)}$$$RNA1{StrandType:ss}|RNA2{StrandType:as}$”, the target mRNA knockdown rises from 87% to 95%.

First: RNA1{r(A)p.r(A)p.r(G)p.r(G)p.r(A)p.r(A)p.r(C)p.r(G)p.r(G)p.r(G)p.r(G)p.r(A)p.m(C)p.r(A)p.r(C)p.r(U)p.m(U)p.r(A)p.r(C)p.r(T)p.r(T)}|RNA2{r(G)p.m(U)p.r(A)p.r(A)p.r(G)p.m(U)p.r(G)p.r(U)p.r(C)p.r(C)p.r(C)p.r(C)p.r(G)p.r(U)p.r(U)p.r(C)p.r(C)p.r(U)p.r(U)p.r(T)p.r(T)}$$$RNA1{StrandType:ss}|RNA2{StrandType:as}$
Second: RNA1{r(A)p.r(A)p.r(G)p.r(G)p.r(A)p.r(A)p.r(C)p.r(G)p.r(G)p.r(G)p.r(G)p.r(A)p.r(C)p.r(A)p.r(C)p.r(U)p.r(U)p.r(A)p.r(C)p.r(T)p.r(T)}|RNA2{r(G)p.m(U)p.r(A)p.r(A)p.r(G)p.r(U)p.r(G)p.r(U)p.r(C)p.r(C)p.r(C)p.r(C)p.r(G)p.r(U)p.r(U)p.r(C)p.r(C)p.r(U)p.r(U)p.r(T)p.r(T)}$$$RNA1{StrandType:ss}|RNA2{StrandType:as}$
The target mRNA knockdown of the first is lower: 35% for the first, 38% for the second.

Compared with “RNA1{r(A)p.r(A)p.r(G)p.r(G)p.r(A)p.r(C)p.r(C)p.[fl2r](U)p.r(A)p.r(G)p.r(A)p.r(G)p.r(G)p.r(A)p.r(G)p.r(U)p.[fl2r](C)p.r(A)p.r(C)p.r(T)p.r(T)}|RNA2{r(G)p.[fl2r](U)p.r(G)p.r(A)p.r(C)p.r(U)p.r(C)p.r(C)p.r(U)p.r(C)p.[fl2r](U)p.r(A)p.r(G)p.r(G)p.r(U)p.r(C)p.r(C)p.r(U)p.r(U)p.r(T)p.r(T)}$$$RNA1{StrandType:ss}|RNA2{StrandType:as}$”, “RNA1{r(A)p.r(A)p.r(G)p.r(G)p.r(A)p.r(C)p.r(C)p.[fl2r](U)p.r(A)p.r(G)p.r(A)p.r(G)p.r(G)p.r(A)p.r(G)p.r(U)p.r(C)p.r(A)p.r(C)p.r(T)p.r(T)}|RNA2{r(G)p.r(U)p.r(G)p.r(A)p.r(C)p.r(U)p.r(C)p.r(C)p.r(U)p.r(C)p.[fl2r](U)p.r(A)p.r(G)p.r(G)p.r(U)p.r(C)p.r(C)p.r(U)p.r(U)p.r(T)p.r(T)}$$$RNA1{StrandType:ss}|RNA2{StrandType:as}$” is higher in target mRNA knockdown: 87% for the first, 88% for the second.

First: RNA1{r(A)p.r(A)p.r(G)p.r(G)p.r(A)p.r(C)p.r(C)p.m(U)p.r(A)p.r(G)p.r(A)p.r(G)p.r(G)p.r(A)p.r(G)p.r(U)p.m(C)p.m(A)p.r(C)p.r(T)p.r(T)}|RNA2{r(G)p.m(U)p.r(G)p.r(A)p.r(C)p.r(U)p.r(C)p.r(C)p.r(U)p.r(C)p.m(U)p.r(A)p.r(G)p.r(G)p.r(U)p.r(C)p.r(C)p.r(U)p.r(U)p.r(T)p.r(T)}$$$RNA1{StrandType:ss}|RNA2{StrandType:as}$
Second: RNA1{r(A)p.r(A)p.r(G)p.r(G)p.r(A)p.r(C)p.r(C)p.m(U)p.r(A)p.r(G)p.r(A)p.r(G)p.r(G)p.r(A)p.r(G)p.r(U)p.r(C)p.r(A)p.r(C)p.r(T)p.r(T)}|RNA2{r(G)p.m(U)p.r(G)p.r(A)p.r(C)p.r(U)p.r(C)p.r(C)p.r(U)p.r(C)p.r(U)p.r(A)p.r(G)p.r(G)p.r(U)p.r(C)p.r(C)p.r(U)p.r(U)p.r(T)p.r(T)}$$$RNA1{StrandType:ss}|RNA2{StrandType:as}$
The target mRNA knockdown of the first is lower: 78% for the first, 80% for the second.

Compared with “RNA1{r(A)p.r(A)p.r(G)p.r(G)p.r(A)p.r(G)p.r(A)p.m(U)p.m(C)p.r(A)p.r(A)p.m(C)p.r(A)p.m(U)p.m(U)p.m(U)p.m(U)p.m(C)p.r(A)p.r(T)p.r(T)}|RNA2{m(U)p.r(G)p.r(A)p.r(A)p.r(A)p.r(A)p.m(U)p.r(G)p.m(U)p.m(U)p.r(G)p.r(A)p.m(U)p.m(C)p.m(U)p.m(C)p.m(C)p.m(U)p.m(U)p.r(T)p.r(T)}$$$RNA1{StrandType:ss}|RNA2{StrandType:as}$”, “RNA1{r(A)p.r(A)p.r(G)p.r(G)p.r(A)p.r(G)p.r(A)p.r(U)p.r(C)p.r(A)p.r(A)p.r(C)p.r(A)p.r(U)p.r(U)p.r(U)p.m(U)p.m(C)p.m(A)p.r(T)p.r(T)}|RNA2{r(U)p.r(G)p.r(A)p.r(A)p.r(A)p.r(A)p.r(U)p.r(G)p.r(U)p.r(U)p.r(G)p.r(A)p.r(U)p.r(C)p.r(U)p.r(C)p.m(C)p.m(U)p.m(U)p.r(T)p.r(T)}$$$RNA1{StrandType:ss}|RNA2{StrandType:as}$” is higher in target mRNA knockdown: 37% for the first, 73% for the second.

“RNA1{r(A)p.r(A)p.r(G)p.r(G)p.r(C)p.r(C)p.r(A)p.r(A)p.r(C)p.r(C)p.r(G)p.r(A)p.[fl2r](U)p.r(A)p.r(C)p.r(U)p.r(U)p.r(C)p.r(U)p.r(T)p.r(T)}|RNA2{r(A)p.r(G)p.r(A)p.r(A)p.r(G)p.[fl2r](U)p.r(A)p.r(U)p.r(C)p.r(G)p.r(G)p.r(U)p.r(U)p.r(G)p.r(G)p.r(C)p.r(C)p.r(U)p.r(U)p.r(T)p.r(T)}$$$RNA1{StrandType:ss}|RNA2{StrandType:as}$” and “RNA1{r(A)p.r(A)p.r(G)p.r(U)p.[fl2r](A)p.r(G)p.r(U)p.r(C)p.r(C)p.r(C)p.r(C)p.r(C)p.r(U)p.r(U)p.r(G)p.r(A)p.r(A)p.r(G)p.r(A)p.r(T)p.r(T)}|RNA2{r(U)p.r(C)p.r(U)p.r(U)p.r(C)p.r(A)p.r(A)p.r(G)p.r(G)p.r(G)p.r(G)p.r(G)p.r(A)p.r(C)p.[fl2r](U)p.r(A)p.r(C)p.r(U)p.r(U)p.r(T)p.r(T)}$$$RNA1{StrandType:ss}|RNA2{StrandType:as}$” are the same in target mRNA knockdown: 69% for the first, 69% for the second.

Substance “RNA1{r(A)p.r(C)p.r(A)p.r(U)p.r(A)p.r(G)p.r(A)p.r(G)p.r(G)p.r(A)p.r(A)p.r(G)p.r(A)p.r(C)p.r(G)p.r(C)p.r(G)p.r(G)p.r(A)p.r(T)p.r(T)}|RNA2{r(U)p.r(C)p.r(C)p.r(G)p.r(C)p.r(G)p.r(U)p.r(C)p.r(U)p.r(U)p.r(C)p.r(C)p.r(U)p.r(C)p.[fl2r](U)p.r(A)p.r(U)p.r(G)p.r(U)p.r(T)p.r(T)}$$$RNA1{StrandType:ss}|RNA2{StrandType:as}$” has a target mRNA knockdown of 89%.

In the case of “RNA1{r(A)p.r(A)p.r(G)p.r(G)p.r(A)p.r(G)p.r(A)p.m(U)p.m(C)p.r(A)p.r(A)p.m(C)p.r(A)p.m(U)p.m(U)p.m(U)p.m(U)p.m(C)p.r(A)p.r(T)p.r(T)}|RNA2{m(U)p.r(G)p.r(A)p.r(A)p.r(A)p.r(A)p.m(U)p.r(G)p.r(U)p.r(U)p.r(G)p.r(A)p.m(U)p.m(C)p.m(U)p.m(C)p.m(C)p.m(U)p.m(U)p.r(T)p.r(T)}$$$RNA1{StrandType:ss}|RNA2{StrandType:as}$”, the target mRNA knockdown is reported as 53% and 74%.
